Data from patent US9206215B2, “Hydrous crystalline 2-O-α-D-glucosyl-L-ascorbic acid, particulate composition comprising the same, their preparation and uses” (HAYASHIBARA CO., LTD., priority 2010, dated 2015).

Experiments:
Format in all cases: physicochemical
[1] = Tabletting property (cracking or chipping of pressed tablets); conditions: powder with particle size 53 to 106 μm, 0.4 g, one ton load for 30 sec, 10 tablets observed for cracking or chipping
From the text: The tabletting property of a particulate composition containing hydrous crystalline ascorbic acid 2-glucoside of the present invention was investigated by the following method and compared with that of a conventional particulate composition containing anhydrous crystalline ascorbic acid 2-glucoside.
A hydrous crystalline ascorbic acid 2-glucoside powder with an ascorbic acid 2-glucoside purity of 99.2% by weight, obtained by the method in Experiment 3, was sieved to collect a powder with a particle size ranging from 53 to 106 μm. The powder thus obtained was placed in a metallic mold for tabletting (11 mm diameter and 30 mm thickness) in an amount of 0.4 g, and tabletted by loading on the powder one ton for 30 sec using “SSP-10A”, a portable press machine, commercialized by Shimadzu Corp., Kyoto, Japan, followed by taking out the resulting tablets by releasing the load. The procedure was repeated 10 times to prepare 10 tablets in total. As a control, “AA2G”, a trade mark of a commercialized particulate composition containing anhydrous crystalline ascorbic acid 2-glucoside with a purity of at least 98%, commercialized by Hayashibara Biochemical Laboratories, Inc., Okayama, Japan, was used to prepare a powder with a particle size ranging from 53 to 106 μm, which was then prepared into 10 tablets by the same method as above. […]

[2] = Oil-holding capacity with corn oil; conditions: for Oil-holding capacity: five grams of corn oil, particle size 53 to 106 μm, powder added until end point
Experimental: Using a particulate composition containing hydrous crystalline ascorbic acid 2-glucoside obtained by the method in Experiment 3-2, the oil-holding capacity of the particulate composition was determined. As a control, “AA2G”, a product name of a commercialized particulate composition containing anhydrous crystalline ascorbic acid 2-glucoside with a purity of at least 98% by weight, commercialized by Hayashibara Biochemical Laboratories, Inc., Okayama, Japan, was used.
The measurements for oil-holding capacity of the particulate compositions were conducted as follows in accordance with the method disclosed in Japanese Patent Kokai No. 31650/84. Five grams of a corn oil (a reagent grade specimen, Lot No.: WKL1215, commercialized by Wako Pure Chemical Industries, Osaka, Japan, was placed in a 50-ml plastic container, to which was gradually added while stirring the particulate composition containing hydrous crystalline ascorbic acid 2-glucoside or the particulate composition containing anhydrous crystalline ascorbic acid 2-glucoside, both of which had been adjusted to give a particle size of 53 to 106 μm similarly as in Experiment 6. Although the resulting mixture retains a free-flowing ability while the additive amount of any of the particulate compositions is relatively low, but it increases its viscosity as the increase of the additive amount and becomes a clump in due course. As the additive amount further increases, the clump increases its hardness and finally it could not keep together and begins to be unstiffen. The moment was regarded as the end point and the oil-holding capacity was determined by the following equation based on the amount of each crystalline particulate composition that had been added until the end point.

[3] = Tablet hardness measured on a rheometer; conditions: tablet of Experiment 6, RHEOMETER CR-500DX
From the text: During the preparation of tablets, the particulate composition was frequently observed, as a causative of cracking, to be adhered to a cylinder (punch) of the portable press machine at the stage of releasing the load and it induced cracking at the stage of taking out from the metallic mold of the press machine.

[4] = listed as particulate composition containing anhydrous crystalline ascorbic acid 2-glucosi
[5] = listed as particulate composition containing hydrous crystalline ascorbic acid 2-glucoside

O=C1O[C@H]([C@@H](O)CO)C(O)=C1O[C@H]1O[C@H](CO)[C@@H](O)[C@H](O)[C@H]1O [Particulate composition containing anhydrous crystalline asc] [2-O-α-D-glucosyl-L-ascorbic acid]
Tablet form [1, 4]: cracking or chipping was observed in 9 out of 10 tablets | Oil-holding capacity [2]: 25.2 | Oil-holding capacity [2, 4]: 25.2

O=C1O[C@H]([C@@H](O)CO)C(O)=C1O[C@H]1O[C@H](CO)[C@@H](O)[C@H](O)[C@H]1O [Particulate composition containing hydrous crystalline ascor] [2-O-α-D-glucosyl-L-ascorbic acid]
degree of hardness of tablet [3]: about 90 N | Tablet form [1, 5]: neither cracking nor chipping was observed in all the 10 tablets | Oil-holding capacity [2]: 38.3 | Oil-holding capacity [2, 5]: 38.3 | Oil-holding capacity relative to the anhydrous crystalline control ([2]; hydrous versus anhydrous particulate composition): about 1.5 folds
